Source: patent EP1228058B1, “BENZOPYRANYL GUANIDINE DERIVATIVES, PROCESS FOR PREPARATION THEREOF, AND PHARMACEUTICAL COMPOSITIONS CONTAINING THEM” (Dongbu Hannong Chemical Co., Ltd., priority 1999, dated 2001)

Experiments:
[1] = system: ischemic heart models of beagle dogs; assay: Heart protective (anti-ischemic) activity in ischemic heart models of anesthetized beagle dogs; type: in vivo; details: total dose 2 mg/kg infused i.v. over 40 min, 90 min occlusion, 5 h reperfusion
Protocol: In order to determine whether the compounds of the formula 1 are protective for the ischemic hearts of larger animals, experiments determining the anti-ischemic effects of the compounds on beagle dogs were conducted as follows. The experiments on beagle dogs followed the method of Grover et al.' (G. J. Grover et al., J. Cardiovasc. Pharmacol. 25, 40 (1995)).
After being anesthetized by an intravenous injection of pentobarbital at a dose of 35 mg/kg, male beagle dogs (8-12 kg) were further infused with pentobarbital sodium at a dose of 3-4 mg/kg through the right cephalic vein throughout the experiments, so as to keep the anesthesia constant. […] The heart rate was measured by a tachometer, such as that manufactured by Gould Inc., OH, U.S.A., identified as Biotachometer. In addition, all of the changes occurring during the experiment were continuously recorded through the Gould 2000 chart recorder, manufactured by Gould Inc.
The fifth intercostal space was incised to open the thorax and the LAD was separated from its surrounding tissues. […] The LAD part upstream of the silk ligature was isolated from adjacent tissues and the blood flow was measured quantitatively. […] Using polygraph such as Grass Model 7E, the electrocardiogram was measured and read (Lead II). […]

diabetic rats = assay: Nociceptive test (hot plate test) in diabetic rats; type: in vivo; details: 50 °C hot plate
Protocol: Effects on nociceptive responses of test compounds in rats were examined using hot plate. The same methods were applied for the induction of diabetes and treatment of test compound in rats. Rats were placed onto 50 °C hot plate, then latencies of nociceptive action such as licking were determined. The recovery (%) of nociceptive responses in diabetic rats was calculated according to the following mathematical […]. [Mathematical formula 5] Recovery(%) =(Response in treated group - Response in diabetic control)/(Response in normal control-Response in diabetic control)x100 [formula]

Human LDL = assay: Inhibition of copper-induced LDL oxidation (MDA, TBA method); type: biochemical; details: CuSO4 10 uM, 18 hr
Protocol: Human LDL (sigma) was dissolved in distilled water at a concentration of 1 mg/ml. LDL was dialyzed against three changes of phosphate-buffered solution before oxidation to remove EDTA (ethylenediamine tetraacetate) at 4 °C for 18 hr. EDTA-free LDL (100 ug LDL protein/ml) was incubated in EDTA-free phosphate-buffered solution at 37 °C for 18 hr in the presence of CuSO4 (10 uM) under pretreatment with the test compounds or tochopherol of which final concentrations were 10^-9, 10^-7, and 10^-5 M. Blank was incubated without CuSO^., and vehicle was used as a solvent group. Oxidation was stopped at 4 °C by addition of EDTA (200 uM).
Copper (Cu^+2) facilitates the oxidation of LDL to produce malondialdehyde (MDA), thus the lipid peroxidation was determined by MDA quantification same as the above example 5 (1). The MDA quantification was estimated by reacting samples with 2-thiobarbituric acid (TBA) and measuring the absorbance at 530 nm. 1,1,3,3-Tetramethoxy propane (Sigma) was used as a standard agent, and calculated the quantity of MDA as nmol of MDA equivalents per mg protein. The inhibitory effect of the test compounds against the lipid peroxidation was evaluated by calculating MDA reduction rate of the test compounds compared with that of the control group.

ischemic retinal cells = assay: Protection of ischemic retinal cells (raised intraocular pressure); type: in vivo, rats; details: vitreous injection 30 min before ischemia
Protocol: Test compounds were dissolved in DMSO to prepare stock solution (100 mM), which was diluted with physiological saline to the concentration of 100, 50 and 30 uM. Test compounds were administered by vitreous injection before 30 min of ischemia.
Adult rats were anaesthetized with ip (intra peritoneum) injection of chloral hydrate (400 mg/Kg), then the right eyes were treated with 1% tropicamide to dilate the pupils. The intraocular pressure (IOP) was raised to 160-180 mmHg, higher than normal blood pressure (140 mmHg), by cannulation of the anterior chamber connected to hydrostatic pressure device. Interruption of blood flow was confirmed ophthalmoscopically, the elevated IOP was maintained for 30 min. After 30 min of ischemia, both eyes were enucleated, and the retina was separated, of which cellular damage was observed. Number of cells in ganglion cell layer (250 x 25 um) and innernuclear layer (150 x 25 um) were counted, then calculated as a % of living cells compared to those of non-operated left eyes as a normal control.

Row | Compound | Anti-ischemic Activity (in vivo, dogs) (2 mg/kg/40 i.v.) min,i.v.) IZ/AAR (%) [1] [%] | Nociceptive response (diabetic rats; latency of licking) [s] | Recovery (%) (diabetic rats; nociceptive responses) | % Inhibition (Human LDL; 10^-5 M) [%] | % Inhibition (Human LDL; 10^-7 M, 0.1 µM) [%] | % Inhibition (Human LDL; 10^-9 M, 0.001 µM) [%] | Living cell (%) Ganglion Cell layer (ischemic retinal cells; 30 uM) [%] | Living cell (%) Innernuclear layer (ischemic retinal cells; 30 uM) [%] | Living cell (%) Ganglion Cell layer (ischemic retinal cells; 50 uM) [%] | Living cell (%) Innernuclear layer (ischemic retinal cells; 50 uM) [%] | Living cell (%) Ganglion Cell layer (ischemic retinal cells; 100 uM) [%] | Living cell (%) Innernuclear layer (ischemic retinal cells; 100 uM) [%]
1 | COC(OC)[C@@]1(C)Oc2ccc([N+](=O)[O-])cc2[C@H](NC(=NC#N)NCc2ccccc2)[C@H]1O [Example 24, (2S, 3R, 4S)-N''-cyano-N-(6-nitro-3,4-dihydro-3-hydroxy-2-methyl-2-dimethoxymethyl-2H-benzopyran-4-yl)-N'-benzylguanidine] | 28.03 | – | – | – | – | – | – | – | – | – | – | –
2 | COC(OC)[C@@]1(C)Oc2ccc(N)cc2[C@@H](NC(=NC#N)NCc2ccccc2)[C@@H]1O [Example 40, (2S, 3S, 4R)-N''-cyano-N-(6 - amino-3,4-dihydro-3-hydroxy-2-methyl-2-dimethoxymethyl-2H-benzopyran-4-yl)-N'-benzylguanidine] | – | 4.791 | 106.5 | 27.6 | 24.3 | 7.6 | 40.7 | 54.8 | 60.2 | 69.8 | 77.9 | 82.6
